From ChEMBL document CHEMBL1154779, “Synthesis and adrenolytic activity of 1-(1H-indol-4-yloxy)-3-(2-(2-methoxy phenoxy)ethylamino)propan-2-ol analogs and its enantiomers. Part 2” (Eur J Med Chem, 2009)

Columns and labels:
Rattus norvegicus [1] = assay: Effect on heart rate in anesthetized Wistar rat assessed as heart beats per min at 1 mg/kg, iv after 5 mins by electrocardiography; assay type: functional
Rattus norvegicus [2] = assay: Effect on heart rate in anesthetized Wistar rat assessed as heart beats per min at 1 mg/kg, iv after 1 min by electrocardiography; assay type: functional
Rattus norvegicus [3] = assay: Antiarrhythmic activity in Wistar rat assessed as inhibition of adrenaline-induced premature ventricular beats at 1 mg/kg, iv administered 15 mins before adrenaline challenge measured after 15 mins by electrocardiography; assay type: functional; settings: Heart
Rattus norvegicus [4] = assay: Effect on heart rate in anesthetized Wistar rat assessed as P-Q intervals time at 1 mg/kg, iv after 1 min by electrocardiography; assay type: functional
Rattus norvegicus [5] = assay: Effect on heart rate in anesthetized Wistar rat assessed as Q-T intervals time at 1 mg/kg, iv after 5 mins by electrocardiography; assay type: functional
Rattus norvegicus [6] = assay: Effect on heart rate in anesthetized Wistar rat assessed as QRS complex time at 1 mg/kg, iv after 15 mins by electrocardiography; assay type: functional
Rattus norvegicus [7] = assay: Effect on heart rate in anesthetized Wistar rat assessed as Q-T intervals time at 1 mg/kg, iv after 1 min by electrocardiography; assay type: functional
Rattus norvegicus [8] = assay: Effect on heart rate in anesthetized Wistar rat assessed as Q-T intervals time at 1 mg/kg, iv after 15 mins by electrocardiography; assay type: functional
Rattus norvegicus [9] = assay: Effect on heart rate in anesthetized Wistar rat assessed as P-Q intervals time at 1 mg/kg, iv after 5 mins by electrocardiography; assay type: functional
[10] = Displacement of [3H]CGP12177 from beta-1 adrenergic receptor in Wistar rat cerebral cortex membrane by liquid scintillation counting; assay type: tissue-based
Rattus norvegicus [11] = assay: Effect on heart rate in anesthetized Wistar rat assessed as heart beats per min at 1 mg/kg, iv after 15 mins by electrocardiography; assay type: functional
Rattus norvegicus [12] = assay: Effect on heart rate in anesthetized Wistar rat assessed as QRS complex time at 1 mg/kg, iv after 5 mins by electrocardiography; assay type: functional
Rattus norvegicus [13] = assay: Effect on heart rate in anesthetized Wistar rat assessed as P-Q intervals time at 1 mg/kg, iv after 15 mins by electrocardiography; assay type: functional
Rattus norvegicus [14] = assay: Effect on heart rate in anesthetized Wistar rat assessed as QRS complex time at 1 mg/kg, iv after 1 min by electrocardiography; assay type: functional

Compound | Activity (Rattus norvegicus [1]) [bpm] | Activity (Rattus norvegicus [2]) [bpm] | ED50 (Rattus norvegicus [3]) [mg/kg] | Activity (Rattus norvegicus [4]) [ms] | Activity (Rattus norvegicus [5]) [ms] | Activity (Rattus norvegicus [6]) [ms] | Activity (Rattus norvegicus [7]) [ms] | Activity (Rattus norvegicus [8]) [ms] | Activity (Rattus norvegicus [9]) [ms] | Ki [10] [nM] | Activity (Rattus norvegicus [11]) [bpm] | Activity (Rattus norvegicus [12]) [ms] | Activity (Rattus norvegicus [13]) [ms] | Activity (Rattus norvegicus [14]) [ms]
COc1ccccc1OCCNCC(O)COc1cccc2[nH]c3ccccc3c12 (stereo not drawn) [CARVEDILOL] | 340.3 | 345.2 | 0.25 | 50 |  |  |  |  |  |  |  |  |  | 
COc1ccccc1OCCNCC(O)COc1cccc2[nH]ccc12 (racemic) | 294.5 | 298.7 | 0.34 | 47.2 | 69 | 26.9 | 69.2 | 72.8 | 48.1 | 3 | 287.3 | 24.9 | 46.2 | 28.4
